Measurements taken from patent US20230034660A1, “PEPTIDES THAT ENHANCE NMDA RECEPTOR FUNCTION AND USE THEREOF” (University of Pittsburgh - Of the Commonwealth System of …, priority 2019, published 2023).

Target: T1, GluN2A-ZnT1 interactions (Rattus norvegicus, UniProt Q62720)
T1 construct: endogenous in cells; host or cells: rat embryonic (E16) cortical cultures, 3-4 weeks in vitro
T1 sequence (Q62720 1-507): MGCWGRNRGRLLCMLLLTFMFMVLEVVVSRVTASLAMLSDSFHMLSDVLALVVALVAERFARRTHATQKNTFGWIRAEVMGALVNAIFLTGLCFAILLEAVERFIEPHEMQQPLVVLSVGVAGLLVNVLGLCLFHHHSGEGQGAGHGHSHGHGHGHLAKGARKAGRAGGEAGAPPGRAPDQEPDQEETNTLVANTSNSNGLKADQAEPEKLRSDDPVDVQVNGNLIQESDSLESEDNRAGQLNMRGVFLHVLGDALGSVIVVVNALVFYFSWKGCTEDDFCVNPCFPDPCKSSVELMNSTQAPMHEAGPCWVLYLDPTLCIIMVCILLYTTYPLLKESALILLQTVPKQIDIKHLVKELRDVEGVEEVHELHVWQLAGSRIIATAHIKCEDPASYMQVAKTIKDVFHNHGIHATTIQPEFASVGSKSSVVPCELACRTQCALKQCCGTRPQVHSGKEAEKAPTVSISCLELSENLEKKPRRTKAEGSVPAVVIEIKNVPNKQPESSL
Assay: Proximity ligation assay (PLA) between GluN2A and ZnT1 in cortical cultures
Format: cell-based
Settings: 3 μM overnight, cortical cultures 21-25 DIV, compared to scramble controls in sister cultures
Description: FIGS. 3A-3B: N2AZ disrupts ZnT1 binding to the GluN2A subunit of NMDAR. (FIG. 3A) Representative images of rat cortical cultures following proximity ligation assay (PLA) between GluN2A and ZnT1. The PLA immunofluorescently labeled sites of interaction between GluN2A and ZnT1 (white punctae). Additionally, Map2 is immunofluorescently labeled to visualize neuron morphology. Scale bar: 20 μm. Top row denotes PLA assay following overnight exposure to 3 μM scN2AZ, while bottom row denotes PLA assay following 3 μM N2AZ treatment. Insets show the localization of PLA punctae along a Map2 stained dendrite. […] Filled circles indicate the quantification of representative images in FIG. 3A. Error bars indicate mean±SEM. […]
Proximity ligation assays were performed using Duolink PLA kit. […] PLA puncta were counted automatically using Fiji ImageJ (Version 2.0) software using maximum intensity projection of 8 sequential images in the z plane. All images were normalized to the same intensity threshold using the Yen threshold setting prior to automated quantification of punctae.
Next, rat neuronal cortical cultures were utilized to determine whether N2AZ treatment was sufficient to disrupt GluN2A-ZnT1 binding in vitro. First, however, ZnT1 expression in cortical cultures was verified using quantitative PCR. […] Next, GluN2A-ZnT1 interactions in the cultures were quantified using a proximity ligation assay (PLA). […]

## NDSYLRSSL [Peptide N2AZ]
  amount of PLA puncta: significantly reduced
